Results on one compound are retold here after paper PMC9153040 (Blood Advances, 2021).

Broadly, the Ki is the dissociation constant of the complex between target and ligand, obtained from inhibition or displacement.

The assay concerns the target T1, ALAS2 (recombinant erythroid-specific 5-aminolevulinate synthase; hsALAS2 in transgenic MEL cells) (Homo sapiens, UniProt P22557).
T1 sequence (P22557 50-587): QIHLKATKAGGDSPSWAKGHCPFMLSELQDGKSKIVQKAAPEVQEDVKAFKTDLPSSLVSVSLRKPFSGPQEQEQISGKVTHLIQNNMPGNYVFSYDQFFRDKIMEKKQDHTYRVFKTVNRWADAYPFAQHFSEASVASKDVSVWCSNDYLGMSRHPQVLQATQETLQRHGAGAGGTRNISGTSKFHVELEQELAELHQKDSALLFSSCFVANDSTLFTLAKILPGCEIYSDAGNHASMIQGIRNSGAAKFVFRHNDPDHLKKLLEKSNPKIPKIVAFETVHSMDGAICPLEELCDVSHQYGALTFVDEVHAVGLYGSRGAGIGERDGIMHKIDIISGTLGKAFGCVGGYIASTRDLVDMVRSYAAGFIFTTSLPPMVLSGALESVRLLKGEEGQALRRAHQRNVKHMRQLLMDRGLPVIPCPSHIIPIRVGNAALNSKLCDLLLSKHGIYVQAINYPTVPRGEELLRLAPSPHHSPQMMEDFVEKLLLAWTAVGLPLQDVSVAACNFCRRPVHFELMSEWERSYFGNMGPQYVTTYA
In words: discontinuous colorimetric assay of ALA. The class given is biochemical.

In the case of `C=C(CC(=O)SCCNC(=O)CCNC(=O)[C@H](O)C(C)(C)COP(=O)(O)OP(=O)(O)OC[C@H]1O[C@@H](n2cnc3c(N)ncnc32)[C@H](O)[C@@H]1OP(=O)(O)O)C(=O)O` [itaconyl-CoA], the Ki was 100 ± 20 µM.
